Values joined by “and” are separate entries in the source; they are usually repeats but may differ in a detail not shown here. Identical values can stand only once.

This experiment deals with P. falciparum HB3 in RBCs, SYBR Green DNA fluorescence. Description: growth inhibition of P. falciparum HB3, dose response, HB3 strain, red blood cells, SYBR Green, cherry-picked (AID 652041).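 Further: parasites exposed to compound for 72 hours before the DNA read.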
Regarding `O=c1c2ccccc2nc(-c2cccc(Cl)c2)n1O`, the AC35 was 28.2 µM.

Regarding `Cc1nc(-c2ccccn2)nc(N(C)c2ccccc2)c1Cl`, the AC35 is 6.1 µM.

As to `COc1ccc(N=N/C(=C\O)C(=O)c2cccs2)cc1`, the AC35 was 7.99 µM.

As for `Cc1cc(Cl)ccc1C(=O)C1CCCN(C(=O)c2cncs2)C1` (stereo not drawn), the AC35 is 33.5 µM.

For `O=C(c1ccc(-c2ccccc2)cc1)C1CCCN(C(=O)c2cncs2)C1` (stereo not drawn), the AC35 was 7.38 µM.

`Cc1ccc(C(=O)C(SC(C)(C)C)n2cncn2)cc1` (stereo not drawn): the AC35 is 38.7 µM.

`O=C(N/N=C/c1ccc[nH]1)c1sc2ccccc2c1Cl`: the AC35 is 15.8 µM.

As to `O=[N+]([O-])c1cccc(C=NNc2ccc3ccccc3n2)c1O`, the AC35 is 6.73 µM.

For the compound `CC1(C)C2CCC1(C)C(OC(=O)c1ccc(O)cc1)C2` (stereo not drawn), the AC35 is 11.6 µM.

On to `CC1(C)C=Cc2c(ccc3c2OC[C@@H](c2ccc(O)cc2O)C3)O1`, for which the AC35 was 13.8 µM.

Regarding `COc1cnc(-c2ccccn2)nc1Oc1ccc(C(C)(C)C)cc1`, the AC35 is 4.82 µM.

Consider `O=C(/C(=N/N=C/c1ccc(O)c(O)c1O)c1ccccc1)c1ccccc1`, for which the AC35 was 3.7 µM.

As for `c1ccc(C(=NNc2nc3ccccc3s2)c2ccccn2)cc1`, the AC35 is 2.22 µM.

For `Cc1ccc2c(C)c3ccc4ccccc4c3c[n+]2c1`, the AC35 was 0.0701 µM.

Regarding `C(=C1c2ccccc2-c2ccccc21)c1ccncc1`, the AC35 was 18.2 µM.

In the case of `CN(C)c1nc(-c2ccccn2)nnc1-c1ccccc1`, the AC35 was 2.54 µM.

Regarding `CC/C(=N/NC(=O)c1ccccc1O)c1c(C)[nH]n(-c2ccccc2)c1=O`, the AC35 was 28.1 µM.

On to `C=CCOC(Cn1ccnc1)c1ccc(Cl)cc1Cl` (stereo not drawn), for which the AC35 was 7.38 µM.

With `COc1ccc(O)c(C(=O)CC(=O)c2ccc(F)cc2)c1`, the AC35 is 16.1 µM.

Take `Cc1cc(-c2ccccc2)n(-c2cc(N/N=C/c3ccccc3O)ncn2)n1`: the AC35 was 3.85 µM.

`O=C(Nc1nnc(-c2cccs2)o1)c1cccc(Oc2ccccc2)c1`: the AC35 was 19.4 µM.

With `CC(C)N1CCN(c2ccc(OC[C@H]3CO[C@](Cn4cncn4)(c4ccc(Cl)cc4Cl)O3)cc2)CC1`, the AC35 was 7.37 µM.

For the compound `CCCCNc1c(-c2cccc(-c3ccc(OC)cc3)c2)nc2ccc(C)cn12`, the AC35 was 1.65 µM.

Consider `CCCCCCC(Cl)(Cn1ccnc1)c1ccccc1` (stereo not drawn), for which the AC35 is 3.48 µM.

As for `O=C(Nc1ccc(Br)c(C(F)(F)F)c1)c1ccccc1`, the AC35 is 10.7 µM.

In the case of `Nc1cc2c3ccccc3ccc2c2ccccc12`, the AC35 is 0.249 µM.

Take `O=S(=O)(c1ccc(Cl)cc1)N1CCC2(CC1)OCCN2S(=O)(=O)c1cccs1`: the AC35 is 20 µM.

Consider `CCc1ccc(OCc2n[nH]c(=S)n2Cc2ccccc2)cc1`, for which the AC35 was 34.4 µM.

Take `CC1CCN(c2nc(-c3ccncc3)nc3ccccc23)CC1`: the AC35 is 8.17 µM.

As to `Cc1ccoc1C(=O)Nc1cccc(Oc2ccccc2)c1`, the AC35 was 6.15 µM.

As to `CC(=O)NC(c1cccc([N+](=O)[O-])c1)c1ccc2cccnc2c1O` (stereo not drawn), the AC35 is 1.77 µM.

As for `O=P(Nc1cccnc1)(Oc1ccccc1Cl)Oc1ccccc1Cl`, the AC35 was 37.1 µM.

For `NC(=Nc1nc(-c2ccccn2)cc2ccccc12)c1ccccn1`, the AC35 is 0.22 µM.

On to `Oc1c(I)cc(Cl)c2cccnc12`, for which the AC35 was 1.67 µM.

As to `O=C(O)CSc1nc(-c2ccc(Cl)cc2)nc2c1oc1ccccc12`, the AC35 was 28.6 µM.

Regarding `CC(=O)C1=C(c2cccc([N+](=O)[O-])c2)N(C(C)=O)n2c(C)nnc2S1`, the AC35 is 0.59 µM.

Regarding `CC(C)(C)n1nc(Cc2cccc3ccccc23)c2c(N)ncnc21`, the AC35 was 23.6 µM.

Take `O=C(CC1CC2CCC1C2)Nc1nc(-c2ccccn2)cs1` (stereo not drawn): the AC35 is 3.99 µM.

As for `CN(C)c1ccc(C=c2c3ccccc3n3c2c2c([n+]3C)CCCC2)cc1`, the AC35 is 0.228 µM.

As for `S=C(Nc1ccc(Oc2ccccc2)cc1)NC1CCCCCC1`, the AC35 was 4.03 µM.

Take `COc1ccc(-c2cc(C(=O)N3CCN(c4ccccc4F)CC3)c3ccccc3n2)c(OC)c1`: the AC35 is 6.74 µM.

Take `COC(=O)COC(=O)c1ccccc1NC(=O)c1ccccc1`: the AC35 was 25.8 µM.

In the case of `C=CCc1ccc(O)c(-c2ccc(O)c(CC=C)c2)c1`, the AC35 is 14.7 µM.

On to `Cn1nc(C(F)(F)F)c(C#N)c1N1CCN(c2ccc(F)cc2)CC1`, for which the AC35 is 18.7 µM.

On to `OCCN(CCO)c1cc2c3ccccc3ccc2c2ccccc12`, for which the AC35 is 1.21 µM.

As to `CC(C)C(=O)NC(c1ccco1)c1ccc2cccnc2c1O` (stereo not drawn), the AC35 was 1.77 µM.

For `COc1cc([N+](=O)[O-])cc(/C=N/NC(=O)c2cncc(Br)c2)c1O`, the AC35 was 16.8 µM.

For `CC1CCc2c(C(=O)Nc3ccccn3)csc2C1` (stereo not drawn), the AC35 is 35.6 µM.

For the compound `O=C(c1ccccc1)c1ccc(Cn2cc(-c3ccccc3)nn2)cc1`, the AC35 is 40.3 µM.

For the compound `O=C(COc1ccccc1F)Nc1nc(-c2ccccn2)cs1`, the AC35 is 12 µM.

As for `O=[N+]([O-])c1ccc2c(OCc3nnc(-c4ccccc4Br)o3)ncnc2c1`, the AC35 was 21.8 µM.

Consider `CCC(Oc1ccc(Br)cc1Cl)C(=O)Nc1nnc(C2CC2)s1` (stereo not drawn), for which the AC35 was 33.3 µM.

Regarding `CCCC(C)Sc1nc2c([nH]1)c(=S)n(C)c(=O)n2C` (stereo not drawn), the AC35 is 6.67 µM.

In the case of `Cc1cc(C)c(C(=O)CC(=O)c2cccnc2)c(C)c1`, the AC35 was 8.29 µM.

`Oc1cccc2ccc(Nc3ccccn3)nc12`: the AC35 was 0.321 µM.

Regarding `CC(C)C(=O)NC(c1cccc([N+](=O)[O-])c1)c1ccc2cccnc2c1O` (stereo not drawn), the AC35 was 0.826 µM.

With `CC(NC(=S)NC1CCC(C(C)(C)C)CC1)c1ccccc1` (stereo not drawn), the AC35 is 8.88 µM.

As to `COc1ccc(/C=N/Nc2cc(C)nc(-n3nc(C)cc3C)n2)cc1`, the AC35 is 1.54 µM.

Take `CCN1C(=O)C(CC(=O)Nc2ccccc2Cl)N(NC(=O)c2cccc(F)c2)C1=S` (stereo not drawn): the AC35 was 21.8 µM.

For `COC(=O)C1=C(C)NC(C)=C(C(=O)OCC(C)C)C1c1ccccc1[N+](=O)[O-]` (stereo not drawn), the AC35 is 4.63 µM.

For `O=C(NCCC1=CCCCC1)c1c(O)nc2sccn2c1=O`, the AC35 was 16.2 µM.

For the compound `Oc1ccc(N=Nc2ccc3c(c2)OCCO3)c2cccnc12`, the AC35 is 0.854 µM.

For `O=C(c1ccccc1)N1C(=O)C(c2ccccc2)Oc2ccccc21` (stereo not drawn), the AC35 was 37.1 µM.

Consider `FC(F)(F)c1nc(SCc2ccc(Cl)cc2Cl)n[nH]1`, for which the AC35 was 40 µM.

As to `O=C(c1ccccc1)c1coc2c1C(=O)c1ccccc1C2=O`, the AC35 was 1.49 µM.

For the compound `CCc1ccc(CN(C)C(=O)c2cc(COc3cccc(C(F)(F)F)c3)on2)nc1`, the AC35 was 29.1 µM.

Take `C=C(C)COc1ccc(-c2[nH]ncc2-c2ccc(Br)cc2)c(O)c1`: the AC35 was 2.25 µM.

On to `CCCc1cc(C(N)=O)c(NC(=O)c2cc(C)on2)s1`, for which the AC35 was 39.7 µM.

Consider `Clc1ccccc1C(c1ccccc1)(c1ccccc1)n1ccnc1`, for which the AC35 is 0.645 µM.

As for `O=C(NCc1ccncc1)c1ccccc1Nc1ccc(SC(F)F)cc1`, the AC35 is 21.5 µM.

With `CCCCOC(=O)/C=C/c1ccc(OC(=O)OC)c(OC(=O)OC)c1`, the AC35 is 11 µM.

For the compound `Cc1nn(CCC#N)c(N)c1C1(O)C(=O)Nc2c(Cl)cc(Cl)cc21` (stereo not drawn), the AC35 was 7.41 µM.

For the compound `C=CCN(CC=C)C(=S)NC(=O)c1ccc(C)c(Br)c1`, the AC35 was 9.72 µM.

With `O/N=C(\c1ccc(Cl)cc1Cl)c1ncc(C(F)(F)F)cc1Cl`, the AC35 is 11.6 µM.

Consider `CCCn1nc(C(=O)N2CCN(S(=O)(=O)c3ccc(C)c(C)c3)CC2)c2ccccc2c1=O`, for which the AC35 is 8.13 µM.

For the compound `CC[n+]1c(/C=C/C=C/c2ccc(N(C)C)cc2)sc2ccccc21`, the AC35 was 2.68 µM.

As for `CCOC(=O)c1cnc(-n2nc(C)cc2C)nc1NC1CCCC1`, the AC35 was 4.23 µM.

As for `Cc1cc(Nc2ccccc2)nn1C(=O)c1ccccc1`, the AC35 is 43.1 µM.

For the compound `O=c1c2ccccc2nc(-c2ccc(-c3ccccc3)cc2)n1-c1ccncc1`, the AC35 is 18.3 µM.

As for `Cc1ccc(C)c(/C=C/C(=O)c2ccccc(=O)c2O)c1`, the AC35 is 8.27 µM.

In the case of `C=C(C)COc1ccc(-c2[nH]ncc2-c2ccccc2)c(O)c1`, the AC35 was 1.89 µM.

For `CCC(NC(=S)NCc1ccc(F)cc1)c1ccc(C(C)C)cc1` (stereo not drawn), the AC35 is 11.3 µM.

For `Cc1ccc(-c2c3c(nc4sc(C(N)=O)c(N)c24)CCCC3)o1`, the AC35 was 37.6 µM.

Regarding `Cc1ccc(NS(=O)(=O)c2ccc(N3CCN(c4ccc(O)cc4)CC3)c([N+](=O)[O-])c2)c(C)c1`, the AC35 was 10.4 µM.

With `CCCCC(=O)NC(c1ccco1)c1cc(Cl)c2cccnc2c1O` (stereo not drawn), the AC35 was 1.62 µM.

Regarding `O/N=C(\c1ccc(Cl)cc1)c1cc2ccccc2o1`, the AC35 was 16.4 µM.

For the compound `O=C1c2cccc(Cl)c2C(=O)c2c1cccc2N1CCCC1`, the AC35 is 20.9 µM.

Regarding `O=C(Nc1ccc(Cl)cc1C(=O)Nc1ccc(Br)cn1)c1ccco1`, the AC35 is 16.5 µM.

With `CCC1=NN(C(=O)c2cccc(Br)c2)C(O)(c2ccc(Br)cc2)C1` (stereo not drawn), the AC35 was 12.3 µM.

For the compound `Cc1ccc(O)c(-c2cc(-c3ccccc3C)[nH]n2)c1`, the AC35 is 6.3 µM.

Turning to `Fc1ccc(CCNC(=S)Nc2ccc(F)c(Cl)c2)cc1`, the AC35 is 14.1 µM.

As to `O=c1c(CO)cc(CO)cc(CO)c1O`, the AC35 was 20.8 µM.

Regarding `CCCCCCCCCCOC(=O)Cn1c(COc2ccccc2OC)[n+](C)c2ccccc21`, the AC35 is 0.346 µM.

Regarding `O=C1c2cc(F)ccc2-n2c1nc1ccccc1c2=O`, the AC35 was 0.0251 µM.

`CN(Cc1ccc(Cl)s1)C(=O)CCl`: the AC35 is 5.21 µM.

With `CN1CCN(C(=O)c2cc(COc3ccc(F)cc3Cl)on2)CC1c1ccccc1` (stereo not drawn), the AC35 is 33.5 µM.

`Clc1ccc(COC(Cn2ccnc2)c2ccc(Cl)cc2Cl)c(Cl)c1` (stereo not drawn): the AC35 is 1.57 µM and 1.95 µM.

On to `O=c1c(O)c(-c2ccccc2)oc2ccccc12`, for which the AC35 was 21.6 µM.

Regarding `O=C(NC(=S)N(CCc1ccccc1)CCc1ccccc1)c1ccco1`, the AC35 is 13.3 µM.

For the compound `CCCCC(=O)NC(=S)NNC(=O)CCc1ccccc1`, the AC35 was 23 µM.

In the case of `CNc1ccc2oc(C[C@H]3O[C@@]4(CC[C@H]3C)O[C@H]([C@H](C)C(=O)c3ccc[nH]3)[C@H](C)C[C@H]4C)nc2c1C(=O)O`, the AC35 is 0.833 µM.

Consider `Cc1ccsc1/C=C/c1ccc2cccc(O)c2n1`, for which the AC35 was 11.9 µM.

Take `CCC(C)n1ncn(-c2ccc(N3CCN(c4ccc(OCC5COC(Cn6cncn6)(c6ccc(Cl)cc6Cl)O5)cc4)CC3)cc2)c1=O` (stereo not drawn): the AC35 is 3.81 µM.

The values are drawn from PubChem BioAssay AID652041 (Broad Institute, 2013).
